What was measured:
[1] = test system: Respiratory Syncytial Virus; test: In vitro screening for activity against Respiratory Syncytial Virus (MTT tetrazolium colorimetric assay, HeLa cells); assay type: cell-based; settings: protection against RSV cytopathology in HeLa cells, 7 days after infection; for EC50: human respiratory syncytial virus, 168 h
Description: The percent protection against cytopathology caused by viruses (antiviral activity or EC50) achieved by tested compounds and their cytotoxicity (CC50) are both calculated from dose-response curves. The selectivity of the antiviral effect is represented by the selectivity index (SI), calculated by dividing the CC50 (cytotoxic dose for 50% of the cells) by the EC50 (antiviral activity for 50% of the cells). The tables in the above experimental part list the category to which each of the prepared compounds belong. Compounds belonging to activity category “A” have an pEC50 (−log of EC50 when expressed in molar units) equal to or more than 7. Compounds belonging to activity category “B” have a pEC50 value between 6 and 7.
Automated tetrazolium-based […] assays were used for determination of EC50 and CC50 of test compounds. Flat-bottom, 96-well plastic microtiter trays were filled with 180 μl of Eagle's Basal Medium, supplemented with 5% FCS (0% for FLU) and 20 mM Hepes buffer. Subsequently, stock solutions (7.8× final test concentration) of compounds were added in 45 μl volumes to a series of triplicate wells so as to allow simultaneous evaluation of their effects on virus- and mock-infected cells. Five five-fold dilutions were made directly in the microtiter trays using a robot system. Untreated virus controls, and HeLa cell controls were included in each test. Approximately 100 TCID50 of Respiratory Syncytial Virus was added to two of the three rows in a volume of 50 μl. The same volume of medium was added to the third row to measure the cytotoxicity of the compounds at the same concentrations as those used to measure the antiviral activity. After two hours of incubation, a suspension (4×10^5 cells/ml) of HeLa cells was added to all wells in a volume of 50 μl. The cultures were incubated at 37° C. in a 5% CO2 atmosphere. Seven days after infection the cytotoxicity and the antiviral activity was examined spectrophotometrically. To each well of the microtiter tray, 25 μl of a solution of MTT (3-(4,5-dimethylthiazol-2-yl)-2,5-diphenyltetrazolium bromide) was added. The trays were further incubated at 37° C. for 2 hours, after which the medium was removed from each cup. Solubilization of the formazan crystals was achieved by adding 100 μl 2-propanol. Complete dissolution of the formazan crystals were obtained after the trays have been placed on a plate shaker for 10 min. Finally, the absorbances were read in an eight-channel computer-controlled photometer (Multiskan MCC, Flow Laboratories) at two wavelengths (540 and 690 nm). The absorbance measured at 690 nm was automatically subtracted from the absorbance at 540 nm, so as to eliminate the effects of non-specific absorption.

[2] = pEC50 = −log of EC50 in molar units

Q: For `Cc1cc(C)cc(NCc2ccc3nc(NCC(O)CO)n(Cc4nc(C)ccc4O)c3c2)c1` (stereo not drawn) [Compound 175, 3-[6-[(3,5-dimethyl-phenylamino)methyl]-1-(3-hydroxy-6-methyl-pyridin-2-ylmethyl)-1H-benzoimidazol-2-ylamino]-propane-1,2-diol], which EC50 [1, 2] is on record?
A: Its EC50 is 31.6 nM.

Q: What about the melting point of the same molecule?
A: The melting point was 128 °C.

Q: For `Cc1ccc(O)c(Cn2c(NC3CCN(CCO)CC3)nc3ccc(CCCN)cc32)n1.Cl` [Compound 160, 2-{6-(3-Amino-propyl)-2-[1-(2-hydroxy-ethyl)-piperidin-4-ylamino]-benzoimidazol-1-ylmethyl}-6-methyl-pyridin-3-ol hydrochloride salt], which EC50 [1, 2] is on record?
A: The EC50 was 12.6 nM.

Q: What about the melting point of the same molecule?
A: Its melting point is 185 °C.

Q: With `COc1ccc(CCNc2nc3ccc(CNc4cc(C)cc(C)c4)cc3n2Cc2nc(C)ccc2O)cc1` [Compound 190, 2-{6-[(3,5-Dimethyl-phenylamino)-methyl]-2-[2-(4-methoxy-phenyl)-ethylamino]-benzoimidazol-1-ylmethyl}-6-methyl-pyridin-3-ol] as the molecule, how does the EC50 [1, 2] read?
A: The EC50 was > 100000 nM.

Q: And the melting point?
A: The melting point was 178 °C.

Q: With `Cc1ccc(O)c(Cn2c(NC3CCN(CCN)CC3)nc3ccc(C=Cc4ccccc4)cc32)n1.Cl` [Compound 146, 2-{2-[1-(2-Amino-ethyl)-piperidin-4-ylamino]-6-styryl-benzoimidazol-1-ylmethyl}-6-methyl-pyridin-3-ol hydrochloride salt] as the molecule, how does the EC50 [1, 2] read?
A: The EC50 was 1.26 nM.

Q: And the melting point?
A: The melting point was 260 °C.

Q: Which melting point does the source give for `Cc1cccc(C(N)c2ccc3nc(NC4CCN(CCO)CC4)n(Cc4nc(C)ccc4O)c3c2)c1` (stereo not drawn) [Compound 148, 2-[2-[1-(2-hydroxy-ethyl)-piperidin-4-ylamino]-6-(m-tolyl-amino-methyl)-benzoimidazol-1-ylmethyl]-6-methyl-pyridin-3-ol] here?
A: Its melting point is 137 °C.

Q: Which melting point does the source give for `Cc1ccc(O)c(Cn2c(NC3CCN(CCN)CC3)nc3ccc(C=Cc4ccccc4)cc32)n1.Cl` (hydrate or solvate) [Compound 146, 2-{2-[1-(2-Amino-ethyl)-piperidin-4-ylamino]-6-styryl-benzoimidazol-1-ylmethyl}-6-methyl-pyridin-3-ol hydrochloride salt] here?
A: The melting point was > 260 °C.

Q: Which Activity [1, 2] does the source give for `Cc1cc(C)cc(NCc2ccc3c(c2)nc(NCC(O)CO)n3Cc2nc(C)ccc2O)c1` (stereo not drawn) [Compound 180] here?
A: The Activity was 5.6.

Q: With `Cc1ccc(O)c(Cn2c(NC3CCN(C)CC3)nc3cc(CNc4ccccc4)ccc32)n1` [Compound 131] as the molecule, how does the Activity [1, 2] read?
A: The Activity was <4.

Q: Which Activity [1, 2] does the source give for `Cc1ccc(O)c(Cn2c(NC3CCN(C)CC3)nc3ccc(CNc4cccc(Oc5ccccc5)c4)cc32)n1` [Compound 66] here?
A: Its Activity is 7.2.

Q: For `Cc1ccc(O)c(Cn2c(NC3CCN(CCN)CC3)nc3cc(CCc4ccccc4)ccc32)n1.Cl` [Compound 157], which Activity [1, 2] is on record?
A: Its Activity is 7.9.

Q: Which Activity [1, 2] does the source give for `Cc1ccc(O)c(Cn2c(NC3CCN(C)CC3)nc3ccc(CN(Cc4cnc[nH]4)c4ccc(Cl)cc4)cc32)n1` [Compound 27] here?
A: Its Activity is 7.9.

Q: With `C#Cc1cccc(NCc2ccc3nc(NC4CCN(C)CC4)n(Cc4nc(C)ccc4O)c3c2)c1` [Compound 13] as the molecule, how does the Activity [1, 2] read?
A: Its Activity is 8.1.

Q: For `Cc1ccc(O)c(Cn2c(NC3CCN(C)CC3)nc3ccc(CNc4cccc5cccnc45)cc32)n1` [Compound 31], which Activity [1, 2] is on record?
A: The Activity was 7.8.

Q: For `Cc1cc(C)cc(NCc2ccc3nc(NC4CCN(C)CC4)n(Cc4nc(C)ccc4O)c3c2)c1` [Compound 3], which Activity [1, 2] is on record?
A: The Activity was 8.6.

Q: For `Cc1ccc(O)c(Cn2c(NC3CCN(C)CC3)nc3ccc(/C=C/c4ccc(Cl)cc4)cc32)n1` [Compound 126], which Activity [1, 2] is on record?
A: Its Activity is <4.

Q: For `COc1cc(NCc2ccc3nc(NC4CCN(C)CC4)n(Cc4nc(C)ccc4O)c3c2)cc(OC)c1` [Compound 36], which Activity [1, 2] is on record?
A: Its Activity is 7.7.

Q: For `Cc1ccc(O)c(Cn2c(NC3CCN(C)CC3)nc3ccc(CN(c4ccccc4)c4ccc(O)cc4)cc32)n1` [Compound 16], which Activity [1, 2] is on record?
A: The Activity was 8.

Q: Which Activity [1, 2] does the source give for `Cc1ccc(O)c(Cn2c(NC3CCN(C)CC3)nc3ccc(CNc4ccc(Br)cc4C)cc32)n1` [Compound 63] here?
A: The Activity was 7.3.

Q: Which Activity [1, 2] does the source give for `Cc1ccc(O)c(Cn2c(NC3CCN(C)CC3)nc3cc(NC(=O)c4ccccc4)ccc32)n1` [Compound 90] here?
A: The Activity was 6.7.

Q: Which Activity [1, 2] does the source give for `Cc1ccc(O)c(Cn2c(NC3CCN(C)CC3)nc3ccc(CN4CCc5cc(Br)ccc54)cc32)n1` [Compound 81] here?
A: Its Activity is 6.9.

Q: With `Cc1ccc(O)c(Cn2c(NC3CCN(C)CC3)nc3ccc(CO)cc32)n1` [Compound 92] as the molecule, how does the Activity [1, 2] read?
A: The Activity was 6.6.

Q: With `CCOC(=O)c1ccc2nc(NC3CCNCC3)n(Cc3nc(C)ccc3O)c2c1` [Compound 141] as the molecule, how does the Activity ([1]; activity category) read?
A: The Activity was “C (pEC50 value equal to or below 6)”.

Q: With `Cc1ccc(O)c(Cn2c(NC3CCN(CCO)CC3)nc3cc(CCc4ccccc4)ccc32)n1` [Compound 168] as the molecule, how does the Activity [1, 2] read?
A: The Activity was 6.6.

Q: For `Cc1ccc(O)c(Cn2c(NC3CCN(C)CC3)nc3ccc(CNc4cc(Cl)cc(Cl)c4)cc32)n1` [Compound 2, 2-[6-[(3,5-dichloro-phenylamino)-methyl]-2-(1-methyl-piperidin-4-ylamino)-benzoimidazol-1-ylmethyl]-6-methyl-pyridin-3-ol], which EC50 [1, 2] is on record?
A: Its EC50 is 2 nM.

Q: Which Activity [1, 2] does the source give for `CCc1cccc(NCc2ccc3nc(NC4CCN(C)CC4)n(Cc4nc(C)ccc4O)c3c2)c1` [Compound 15] here?
A: The Activity was 8.

Q: Which Activity [1, 2] does the source give for `Cc1ccc(O)c(Cn2c(NC3CCN(C)CC3)nc3ccc(CNc4ccc(Nc5ccccc5)cc4)cc32)n1` [Compound 64] here?
A: The Activity was 7.3.

Q: For `Cc1ccc(O)c(Cn2c(NC3CCN(C)CC3)nc3cc(CO)ccc32)n1` [Compound 122], which Activity [1, 2] is on record?
A: The Activity was <4.

Q: With `Cc1cccc(/C=C/c2ccc3c(c2)nc(NC2CCN(CCN)CC2)n3Cc2nc(C)ccc2O)c1.Cl` [Compound 147] as the molecule, how does the Activity [1, 2] read?
A: Its Activity is 8.8.

Q: For `Cc1ccc(O)c(Cn2c(NC3CCN(C)CC3)nc3ccc(CNc4ccc(C#N)cc4)cc32)n1` [Compound 12], which Activity [1, 2] is on record?
A: The Activity was 8.2.

Q: Which Activity [1, 2] does the source give for `Cc1ccc(O)c(Cn2c(NC3CCN(C)CC3)nc3ccc(CNc4c(F)cccc4F)cc32)n1` [Compound 46] here?
A: Its Activity is 7.5.

Q: For `Cc1ccc(/C=C/c2ccc3c(c2)nc(NC2CCN(C)CC2)n3Cc2nc(C)ccc2O)cc1` [Compound 125], which Activity [1, 2] is on record?
A: The Activity was <4.

Q: With `CCN(CCO)Cc1ccc2nc(NC3CCN(C)CC3)n(Cc3nc(C)ccc3O)c2c1` [Compound 111] as the molecule, how does the Activity [1, 2] read?
A: Its Activity is 5.6.

Q: For `Cc1ccc(O)c(Cn2c(NC3CCN(C)CC3)nc3ccc(C(=O)NCc4ccccn4)cc32)n1` [Compound 134], which Activity [1, 2] is on record?
A: Its Activity is <4.

Q: Which Activity [1, 2] does the source give for `COc1ccc(NCc2ccc3nc(NC4CCN(C)CC4)n(Cc4nc(C)ccc4O)c3c2)cc1F` [Compound 67] here?
A: Its Activity is 7.2.

Q: For “2-[6-[(1-ethylidene-3-methyl-penta-2,4-dienylamino)-methyl]-2-(1-methyl-piperidin-4-ylamino)-benzoimidazol-1-ylmethyl]-6-methyl-pyridin-3-ol [Compound 9]”, which Activity [1, 2] is on record?
A: The Activity was 8.3.

Q: For `CCOC(=O)c1cccc(NCc2ccc3nc(NC4CCN(C)CC4)n(Cc4nc(C)ccc4O)c3c2)c1` [Compound 57], which Activity [1, 2] is on record?
A: Its Activity is 7.3.

Q: Which Activity [1, 2] does the source give for `Cc1ccc(O)c(Cn2c(NC3CCN(C)CC3)nc3ccc(CNc4ccc(C(F)(F)F)cc4)cc32)n1` [Compound 71] here?
A: The Activity was 7.2.

Q: Which Activity [1, 2] does the source give for `Cc1ccc(O)c(Cn2c(NC3CCN(C)CC3)nc3ccc(NC(=O)Cc4ccccn4)cc32)n1` [Compound 108] here?
A: Its Activity is 6.

Q: For `Cc1ccc(O)c(Cn2c(NC3CCN(C)CC3)nc3ccc(CNc4c(C)cccc4C)cc32)n1` [Compound 75], which Activity [1, 2] is on record?
A: The Activity was 7.

Q: Which Activity [1, 2] does the source give for `CCc1cc(C#N)ccc1NCc1ccc2nc(NC3CCN(C)CC3)n(Cc3nc(C)ccc3O)c2c1` [Compound 43] here?
A: Its Activity is 7.6.

Q: Which Activity [1, 2] does the source give for `Cc1ccc(O)c(Cn2c(NC3CCN(C)CC3)nc3ccc(CNc4cccc(C(N)=O)c4)cc32)n1` [Compound 58] here?
A: The Activity was 7.3.

Q: Which Activity [1, 2] does the source give for `Cc1ccc(O)c(Cn2c(NC3CCN(C)CC3)nc3ccc(/C=C/c4ccccc4)cc32)n1` [Compound 99] here?
A: The Activity was 6.4.

Q: With `Cc1ccc(O)c(Cn2c(NC3CCN(C)CC3)nc3ccc(NC(=O)c4cccnc4)cc32)n1` [Compound 114] as the molecule, how does the Activity [1, 2] read?
A: The Activity was 5.2.

Q: For `CCOC(=O)c1ccccc1NCc1ccc2nc(NC3CCN(C)CC3)n(Cc3nc(C)ccc3O)c2c1` [Compound 72], which Activity [1, 2] is on record?
A: Its Activity is 7.1.

Q: Which Activity [1, 2] does the source give for `CC(=O)c1cccc(NCc2ccc3nc(NC4CCN(C)CC4)n(Cc4nc(C)ccc4O)c3c2)c1` [Compound 19] here?
A: Its Activity is 7.9.

Q: With `Cc1ccc(O)c(Cn2c(NC3CCN(C)CC3)nc3ccc(CNc4cccc(Br)c4)cc32)n1` [Compound 6] as the molecule, how does the Activity [1, 2] read?
A: Its Activity is 8.4.

Q: Which Activity [1, 2] does the source give for `Cc1ccc(O)c(Cn2c(NC3CCN(CCO)CC3)nc3ccc(C=Cc4ccccc4)cc32)n1` [Compound 169] here?
A: Its Activity is 6.6.

Source: patent publication US8278455B2, “5- or 6-substituted benzimidazole derivatives as inhibitors of respiratory syncytial virus replication” (Janssen Pharmaceutica N.V., priority 2003, dated 2012)
